{
  "source": "paper PMC5362750",
  "about": "“Discovery of Potent, Selective, and Orally Bioavailable Small-Molecule Modulators of the Mediator Complex-Associated Kinases CDK8 and CDK19” (Journal of Medicinal Chemistry, 2016)",
  "key": {"CCK2 (CCKB) (h)": {"target": "CCK2 (CCKB) (h) (Homo sapiens, UniProt P32239)", "assay": "CEREP binding assay", "settings": "agonist radioligand, read-out: % Inhibition of Control Specific Binding"}, "NK1 (h)": {"target": "NK1 (h) (Homo sapiens, UniProt P25103)", "sequence (P25103 whole entry)": "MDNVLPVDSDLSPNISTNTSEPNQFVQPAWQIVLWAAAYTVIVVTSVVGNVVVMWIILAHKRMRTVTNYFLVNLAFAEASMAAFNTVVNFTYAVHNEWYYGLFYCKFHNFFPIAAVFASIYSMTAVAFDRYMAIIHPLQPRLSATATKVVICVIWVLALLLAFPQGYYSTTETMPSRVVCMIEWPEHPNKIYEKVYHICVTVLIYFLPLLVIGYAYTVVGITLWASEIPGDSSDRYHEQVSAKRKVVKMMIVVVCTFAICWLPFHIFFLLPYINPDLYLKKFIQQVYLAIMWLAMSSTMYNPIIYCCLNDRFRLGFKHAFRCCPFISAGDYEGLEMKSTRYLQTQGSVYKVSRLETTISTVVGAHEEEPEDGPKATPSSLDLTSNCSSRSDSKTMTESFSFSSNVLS", "assay": "CEREP binding assay", "settings": "agonist radioligand, read-out: % Inhibition of Control Specific Binding"}, "sst4 (h)": {"target": "sst4 (h) (Homo sapiens, UniProt P31391)", "assay": "CEREP binding assay", "settings": "agonist radioligand, read-out: % Inhibition of Control Specific Binding"}, "ERalpha (h)": {"target": "ERalpha (h) (Homo sapiens, UniProt P03372)", "assay": "CEREP binding assay", "settings": "agonist fluoligand, read-out: % Inhibition of Control Specific Binding"}, "ALK4": {"target": "T1, ALK4 (Homo sapiens, UniProt P36896)", "T1 construct": "purchased Millipore (KinaseProfiler) kinase panel", "assay": "Kinase panel (Millipore)", "format": "biochemical", "settings": "1 µM, ATP at Km"}, "BLK": {"target": "BLK (Homo sapiens, UniProt P51451)", "sequence (P51451 whole entry)": "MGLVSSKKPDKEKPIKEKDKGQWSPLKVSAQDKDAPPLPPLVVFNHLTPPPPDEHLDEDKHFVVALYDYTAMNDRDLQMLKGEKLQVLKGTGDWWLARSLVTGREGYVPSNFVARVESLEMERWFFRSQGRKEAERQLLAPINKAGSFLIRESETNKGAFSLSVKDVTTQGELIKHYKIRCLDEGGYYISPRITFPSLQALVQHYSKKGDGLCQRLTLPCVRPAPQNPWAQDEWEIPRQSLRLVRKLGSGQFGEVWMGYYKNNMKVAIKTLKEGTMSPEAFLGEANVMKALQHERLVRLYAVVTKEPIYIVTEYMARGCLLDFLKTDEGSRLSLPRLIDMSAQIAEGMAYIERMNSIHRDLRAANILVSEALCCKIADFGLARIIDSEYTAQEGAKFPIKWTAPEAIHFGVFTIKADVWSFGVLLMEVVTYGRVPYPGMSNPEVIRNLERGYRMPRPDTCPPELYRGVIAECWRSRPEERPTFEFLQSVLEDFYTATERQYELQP", "assay": "Kinase panel (Millipore)", "format": "biochemical", "settings": "1 µM, ATP at Km"}, "MAPK1": {"target": "MAPK1 (Homo sapiens, UniProt P27361)", "assay": "Kinase panel (Millipore)", "format": "biochemical", "settings": "1 µM, ATP at Km"}, "BRK": {"target": "T2, BRK (Homo sapiens, UniProt Q13882)", "T2 construct": "purchased Millipore (KinaseProfiler) kinase panel", "assay": "Kinase panel (Millipore)", "format": "biochemical", "settings": "1 µM, ATP at Km"}, "ERBB4": {"target": "T3, ERBB4 (Homo sapiens, UniProt Q15303)", "T3 construct": "purchased Millipore (KinaseProfiler) kinase panel", "assay": "Kinase panel (Millipore)", "format": "biochemical", "settings": "1 µM, ATP at Km"}, "FGR": {"target": "FGR (Homo sapiens, UniProt P09769)", "assay": "Kinase panel (Millipore)", "format": "biochemical", "settings": "1 µM, ATP at Km"}, "MSK1": {"target": "MSK1 (Homo sapiens, UniProt O75582)", "assay": "Kinase panel (Millipore)", "format": "biochemical", "settings": "1 µM, ATP at Km"}, "CHK2": {"target": "T4, CHK2 (Homo sapiens, UniProt O96017)", "T4 construct": "purchased Millipore (KinaseProfiler) kinase panel", "assay": "Kinase panel (Millipore)", "format": "biochemical", "settings": "1 µM, ATP at Km"}, "HCK": {"target": "HCK (Homo sapiens, UniProt P08631)", "sequence (P08631 whole entry)": "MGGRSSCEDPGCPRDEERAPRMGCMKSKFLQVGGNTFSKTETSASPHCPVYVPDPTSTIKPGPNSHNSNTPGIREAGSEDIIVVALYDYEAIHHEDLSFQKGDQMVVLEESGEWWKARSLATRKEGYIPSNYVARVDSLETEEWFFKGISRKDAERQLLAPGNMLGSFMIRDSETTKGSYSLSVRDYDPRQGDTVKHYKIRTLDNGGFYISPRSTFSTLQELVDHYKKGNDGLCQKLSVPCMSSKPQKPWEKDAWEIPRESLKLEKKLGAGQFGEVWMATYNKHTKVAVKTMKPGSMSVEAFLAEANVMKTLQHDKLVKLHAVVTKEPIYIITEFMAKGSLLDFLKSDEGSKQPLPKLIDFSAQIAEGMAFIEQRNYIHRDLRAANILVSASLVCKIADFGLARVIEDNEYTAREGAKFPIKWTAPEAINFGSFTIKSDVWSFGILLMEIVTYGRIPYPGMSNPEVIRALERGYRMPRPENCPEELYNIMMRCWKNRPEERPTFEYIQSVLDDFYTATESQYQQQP", "assay": "Kinase panel (Millipore)", "format": "biochemical", "settings": "1 µM, ATP at Km"}, "IGF-1R": {"target": "T5, IGF-1R (Homo sapiens, UniProt P08069)", "T5 construct": "purchased Millipore (KinaseProfiler) kinase panel", "T5 sequence (P08069 31-1367)": "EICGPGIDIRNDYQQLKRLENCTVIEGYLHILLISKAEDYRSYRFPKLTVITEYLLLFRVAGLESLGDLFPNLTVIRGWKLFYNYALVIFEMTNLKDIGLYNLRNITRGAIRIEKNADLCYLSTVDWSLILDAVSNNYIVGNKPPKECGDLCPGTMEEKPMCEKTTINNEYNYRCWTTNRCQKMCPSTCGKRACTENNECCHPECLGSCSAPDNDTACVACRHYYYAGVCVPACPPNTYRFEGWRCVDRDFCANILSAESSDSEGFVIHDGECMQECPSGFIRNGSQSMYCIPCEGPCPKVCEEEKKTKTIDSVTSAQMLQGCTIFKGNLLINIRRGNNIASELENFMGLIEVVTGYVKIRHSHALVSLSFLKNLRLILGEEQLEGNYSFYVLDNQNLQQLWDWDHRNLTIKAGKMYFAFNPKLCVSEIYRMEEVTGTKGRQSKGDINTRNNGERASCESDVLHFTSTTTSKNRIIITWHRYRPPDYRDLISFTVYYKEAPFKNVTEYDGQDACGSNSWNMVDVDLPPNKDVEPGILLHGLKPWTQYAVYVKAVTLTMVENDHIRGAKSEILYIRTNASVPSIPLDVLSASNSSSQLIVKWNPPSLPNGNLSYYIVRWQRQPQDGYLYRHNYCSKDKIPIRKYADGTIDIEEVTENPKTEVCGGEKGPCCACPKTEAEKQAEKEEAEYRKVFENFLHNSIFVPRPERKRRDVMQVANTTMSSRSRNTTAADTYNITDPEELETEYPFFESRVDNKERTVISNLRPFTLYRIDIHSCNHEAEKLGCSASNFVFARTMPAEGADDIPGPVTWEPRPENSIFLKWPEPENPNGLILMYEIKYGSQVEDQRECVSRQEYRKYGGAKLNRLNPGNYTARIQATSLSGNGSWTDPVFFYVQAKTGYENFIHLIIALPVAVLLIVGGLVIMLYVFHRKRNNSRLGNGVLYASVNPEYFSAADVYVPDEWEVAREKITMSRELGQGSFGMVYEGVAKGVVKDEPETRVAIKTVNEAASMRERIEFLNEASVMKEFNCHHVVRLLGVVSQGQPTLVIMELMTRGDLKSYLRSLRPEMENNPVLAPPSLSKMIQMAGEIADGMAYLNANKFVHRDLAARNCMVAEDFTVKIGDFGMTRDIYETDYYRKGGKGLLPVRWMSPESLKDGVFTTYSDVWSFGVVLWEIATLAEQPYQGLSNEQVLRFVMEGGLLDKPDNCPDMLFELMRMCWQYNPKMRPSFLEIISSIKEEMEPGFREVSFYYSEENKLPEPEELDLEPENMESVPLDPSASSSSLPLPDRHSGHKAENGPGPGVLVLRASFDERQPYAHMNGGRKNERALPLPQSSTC", "assay": "Kinase panel (Millipore)", "format": "biochemical", "settings": "1 µM, ATP at Km"}, "MUSK": {"target": "T6, MUSK (Homo sapiens, UniProt O15146)", "T6 construct": "purchased Millipore (KinaseProfiler) kinase panel", "assay": "Kinase panel (Millipore)", "format": "biochemical", "settings": "1 µM, ATP at Km"}, "ITK": {"target": "T7, ITK (Homo sapiens, UniProt Q08881)", "T7 construct": "purchased Millipore (KinaseProfiler) kinase panel", "assay": "Kinase panel (Millipore)", "format": "biochemical", "settings": "1 µM, ATP at Km"}, "JNK1ALPHA1": {"target": "JNK1ALPHA1 (Homo sapiens, UniProt P45983)", "assay": "Kinase panel (Millipore)", "format": "biochemical", "settings": "1 µM, ATP at Km"}, "SAPK2A": {"target": "SAPK2A (Homo sapiens, UniProt Q16539)", "assay": "Kinase panel (Millipore)", "format": "biochemical", "settings": "1 µM, ATP at Km"}, "MER": {"target": "T8, MER (Homo sapiens, UniProt Q12866)", "T8 construct": "purchased Millipore (KinaseProfiler) kinase panel", "assay": "Kinase panel (Millipore)", "format": "biochemical", "settings": "1 µM, ATP at Km"}, "SIK": {"target": "T9, SIK (Homo sapiens, UniProt P57059)", "T9 construct": "purchased Millipore (KinaseProfiler) kinase panel", "assay": "Kinase panel (Millipore)", "format": "biochemical", "settings": "1 µM, ATP at Km"}, "SRPK1": {"target": "T10, SRPK1 (Homo sapiens, UniProt Q96SB4)", "T10 construct": "purchased Millipore (KinaseProfiler) kinase panel", "assay": "Kinase panel (Millipore)", "format": "biochemical", "settings": "1 µM, ATP at Km"}, "HASPIN": {"target": "T11, HASPIN (Homo sapiens, UniProt Q8TF76)", "T11 construct": "purchased Millipore (KinaseProfiler) kinase panel", "assay": "Kinase panel (Millipore)", "format": "biochemical", "settings": "1 µM, ATP at Km"}, "PKCEPSILON": {"target": "T12, PKCEPSILON (Homo sapiens, UniProt Q02156)", "T12 construct": "purchased Millipore (KinaseProfiler) kinase panel", "assay": "Kinase panel (Millipore)", "format": "biochemical", "settings": "1 µM, ATP at Km"}, "TLK2": {"target": "T13, TLK2 (Homo sapiens, UniProt Q86UE8)", "T13 construct": "purchased Millipore (KinaseProfiler) kinase panel", "assay": "Kinase panel (Millipore)", "format": "biochemical", "settings": "1 µM, ATP at Km"}, "TIE2": {"target": "T14, TIE2 (Homo sapiens, UniProt Q02763)", "T14 construct": "purchased Millipore (KinaseProfiler) kinase panel", "T14 sequence (Q02763 23-1124)": "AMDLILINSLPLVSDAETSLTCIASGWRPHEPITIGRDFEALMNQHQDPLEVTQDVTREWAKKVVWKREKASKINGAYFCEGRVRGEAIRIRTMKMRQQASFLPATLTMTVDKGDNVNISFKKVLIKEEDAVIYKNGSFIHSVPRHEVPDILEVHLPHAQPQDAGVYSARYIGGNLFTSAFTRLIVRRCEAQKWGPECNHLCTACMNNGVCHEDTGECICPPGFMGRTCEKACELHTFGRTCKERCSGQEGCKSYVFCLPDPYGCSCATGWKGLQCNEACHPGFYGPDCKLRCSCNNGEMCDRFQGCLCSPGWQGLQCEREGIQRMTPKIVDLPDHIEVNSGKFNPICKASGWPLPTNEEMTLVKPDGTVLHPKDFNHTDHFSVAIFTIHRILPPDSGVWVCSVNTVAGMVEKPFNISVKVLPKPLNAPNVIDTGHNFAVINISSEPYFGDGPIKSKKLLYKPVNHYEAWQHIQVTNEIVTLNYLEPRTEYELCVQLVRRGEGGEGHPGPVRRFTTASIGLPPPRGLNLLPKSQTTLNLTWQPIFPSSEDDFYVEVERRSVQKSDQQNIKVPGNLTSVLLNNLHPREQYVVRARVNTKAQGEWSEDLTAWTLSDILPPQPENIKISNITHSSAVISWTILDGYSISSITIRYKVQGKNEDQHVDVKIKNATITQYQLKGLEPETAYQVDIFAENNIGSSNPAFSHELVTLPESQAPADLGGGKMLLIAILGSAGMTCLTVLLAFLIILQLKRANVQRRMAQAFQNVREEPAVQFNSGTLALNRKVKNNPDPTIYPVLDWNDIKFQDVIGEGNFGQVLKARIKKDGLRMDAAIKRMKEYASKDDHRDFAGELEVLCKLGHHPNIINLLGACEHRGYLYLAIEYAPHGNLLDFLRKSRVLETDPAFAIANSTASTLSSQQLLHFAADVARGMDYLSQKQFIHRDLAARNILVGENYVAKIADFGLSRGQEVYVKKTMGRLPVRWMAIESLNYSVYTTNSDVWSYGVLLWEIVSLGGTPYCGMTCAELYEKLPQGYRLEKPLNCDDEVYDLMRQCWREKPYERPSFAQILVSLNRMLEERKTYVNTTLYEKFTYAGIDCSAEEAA", "assay": "Kinase panel (Millipore)", "format": "biochemical", "settings": "1 µM, ATP at Km"}, "ZAP-70": {"target": "T15, ZAP-70 (Homo sapiens, UniProt P43403)", "T15 construct": "purchased Millipore (KinaseProfiler) kinase panel", "assay": "Kinase panel (Millipore)", "format": "biochemical", "settings": "1 µM, ATP at Km"}, "CK1GAMMA1": {"target": "CK1GAMMA1 (Homo sapiens, UniProt Q9HCP0)", "assay": "Kinase panel (Millipore)", "format": "biochemical", "settings": "1 µM, ATP at Km"}, "MTOR": {"target": "MTOR (Homo sapiens, UniProt P42345)", "assay": "Kinase panel (Millipore)", "format": "biochemical", "settings": "1 µM, ATP at Km"}, "RSK1": {"target": "T16, RSK1 (Homo sapiens, UniProt Q15418)", "T16 construct": "purchased Millipore (KinaseProfiler) kinase panel", "assay": "Kinase panel (Millipore)", "format": "biochemical", "settings": "1 µM, ATP at Km"}, "[1]": {"settings": "female, NMRI, mouse, in vivo"}, "kainate": {"system": "kainate", "settings": "10 µM, agonist radioligand"}, "ABL(T315I)": {"target": "ABL(T315I) (Homo sapiens, UniProt P00519, T315I)", "settings": "1 µM, ATP at Km"}, "CDK2/CYCLINE": {"target": "CDK2/CYCLINE (Homo sapiens, UniProt P24941)", "settings": "1 µM, ATP at Km"}, "CDK6/CYCLIND3": {"target": "CDK6/CYCLIND3 (Homo sapiens, UniProt Q00534)", "settings": "1 µM, ATP at Km"}, "EGFR(L858R)": {"target": "EGFR(L858R) (Homo sapiens, UniProt P00533, L858R)", "settings": "1 µM, ATP at Km"}, "TIE2(R849W)": {"target": "TIE2(R849W) (Homo sapiens, UniProt Q02763, R849W)", "settings": "1 µM, ATP at Km"}, "TIE2(Y897S)": {"target": "TIE2(Y897S) (Homo sapiens, UniProt Q02763, Y897S)", "settings": "1 µM, ATP at Km"}, "in vivo": {"assay": "in vivo", "settings": "female, NMRI, mouse, po, 0.5 mg/kg"}, "alpha 2C (h)": {"target": "alpha 2C (h) (Homo sapiens, UniProt P18825)", "assay": "biochemical", "settings": "read-out: % Inhibition of Control Specific Binding"}, "glucagon (h)": {"target": "glucagon (h) (Homo sapiens, UniProt P47871)", "sequence (P47871 26-477)": "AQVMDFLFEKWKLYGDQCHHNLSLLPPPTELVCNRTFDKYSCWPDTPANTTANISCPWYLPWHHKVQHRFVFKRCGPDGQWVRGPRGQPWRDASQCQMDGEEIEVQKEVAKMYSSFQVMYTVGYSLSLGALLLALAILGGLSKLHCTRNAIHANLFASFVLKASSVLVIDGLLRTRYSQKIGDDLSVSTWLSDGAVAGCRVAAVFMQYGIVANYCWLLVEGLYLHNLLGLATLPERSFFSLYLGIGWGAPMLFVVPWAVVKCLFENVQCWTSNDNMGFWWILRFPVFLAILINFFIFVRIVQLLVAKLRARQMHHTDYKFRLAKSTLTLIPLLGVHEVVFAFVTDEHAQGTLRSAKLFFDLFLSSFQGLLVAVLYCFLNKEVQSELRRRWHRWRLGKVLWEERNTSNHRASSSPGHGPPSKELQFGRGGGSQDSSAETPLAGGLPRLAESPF", "assay": "biochemical", "settings": "read-out: % Inhibition of Control Specific Binding"}, "5-HT2A (h)": {"target": "5-HT2A (h) (Homo sapiens, UniProt P28223)", "sequence (P28223 whole entry)": "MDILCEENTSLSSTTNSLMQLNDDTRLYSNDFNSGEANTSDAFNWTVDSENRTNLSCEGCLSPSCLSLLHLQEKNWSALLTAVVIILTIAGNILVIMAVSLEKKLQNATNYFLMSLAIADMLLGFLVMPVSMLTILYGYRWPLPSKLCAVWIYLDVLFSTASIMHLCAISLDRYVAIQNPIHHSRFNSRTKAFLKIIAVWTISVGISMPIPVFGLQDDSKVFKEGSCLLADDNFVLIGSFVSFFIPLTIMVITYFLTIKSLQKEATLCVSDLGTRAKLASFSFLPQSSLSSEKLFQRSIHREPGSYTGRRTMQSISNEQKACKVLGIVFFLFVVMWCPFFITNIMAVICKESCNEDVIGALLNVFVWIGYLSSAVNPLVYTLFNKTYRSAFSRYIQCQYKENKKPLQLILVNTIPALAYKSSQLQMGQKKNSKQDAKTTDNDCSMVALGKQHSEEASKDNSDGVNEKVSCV", "assay": "biochemical", "settings": "read-out: % Inhibition of Control Specific Binding"}, "In vivo mouse PK": {"assay": "In vivo mouse PK", "settings": "female, NMRI, plasma, iv, 0.2 mg/kg"}},
  "data": [
    {"smiles": "Cn1ncc2cc(-c3cnc(N)c(Cl)c3N3CCC4(CCNC4=O)CC3)ccc21", "note": "[Compound 109, 8-(2-Amino-3-chloro-5-(1-methyl-1H-indazol-5-yl)pyridin-4-yl)-2,8-diazaspiro[4.5]decan-1-one]", "values": [
      {"measurement": "inhibition at 10 µM", "setting": "CCK2 (CCKB) (h)", "value": 0, "unit": "%"},
      {"measurement": "inhibition at 10 µM", "setting": "NK1 (h)", "value": 25, "unit": "%"},
      {"measurement": "inhibition at 10 µM", "setting": "sst4 (h)", "value": 9, "unit": "%"},
      {"measurement": "inhibition at 10 µM", "setting": "ERalpha (h)", "value": 0, "unit": "%"},
      {"measurement": "% effect", "setting": "ALK4", "value": 2, "unit": "%"},
      {"measurement": "% effect", "setting": "BLK", "value": 11, "unit": "%"},
      {"measurement": "% effect", "setting": "MAPK1", "value": 7, "unit": "%"},
      {"measurement": "% effect", "setting": "BRK", "value": 13, "unit": "%"},
      {"measurement": "% effect", "setting": "ERBB4", "value": -28, "unit": "%"},
      {"measurement": "% effect", "setting": "FGR", "value": -2, "unit": "%"},
      {"measurement": "% effect", "setting": "MSK1", "value": -3, "unit": "%"},
      {"measurement": "% effect", "setting": "CHK2", "value": -2, "unit": "%"},
      {"measurement": "% effect", "setting": "HCK", "value": -4, "unit": "%"},
      {"measurement": "% effect", "setting": "IGF-1R", "value": -26, "unit": "%"},
      {"measurement": "% effect", "setting": "MUSK", "value": 3, "unit": "%"},
      {"measurement": "% effect", "setting": "ITK", "value": -9, "unit": "%"},
      {"measurement": "% effect", "setting": "JNK1ALPHA1", "value": -6, "unit": "%"},
      {"measurement": "% effect", "setting": "SAPK2A", "value": -6, "unit": "%"},
      {"measurement": "% effect", "setting": "MER", "value": 11, "unit": "%"},
      {"measurement": "% effect", "setting": "SIK", "value": -1, "unit": "%"},
      {"measurement": "% effect", "setting": "SRPK1", "value": -8, "unit": "%"},
      {"measurement": "% effect", "setting": "HASPIN", "value": 26, "unit": "%"},
      {"measurement": "% effect", "setting": "PKCEPSILON", "value": -21, "unit": "%"},
      {"measurement": "% effect", "setting": "TLK2", "value": -5, "unit": "%"},
      {"measurement": "% effect", "setting": "TIE2", "value": 14, "unit": "%"},
      {"measurement": "% effect", "setting": "ZAP-70", "value": 21, "unit": "%"},
      {"measurement": "% effect", "setting": "CK1GAMMA1", "value": -5, "unit": "%"},
      {"measurement": "% effect", "setting": "MTOR", "value": -3, "unit": "%"},
      {"measurement": "% effect", "setting": "RSK1", "value": 13, "unit": "%"},
      {"measurement": "LBF", "setting": "[1]", "value": 10, "unit": "%"},
      {"measurement": "% Inhibition of Control Specific Binding", "setting": "kainate", "value": 9, "unit": "%"},
      {"measurement": "% effect", "setting": "ABL(T315I)", "value": 4, "unit": "%"},
      {"measurement": "% effect", "setting": "CDK2/CYCLINE", "value": 3, "unit": "%"},
      {"measurement": "% effect", "setting": "CDK6/CYCLIND3", "value": 5, "unit": "%"},
      {"measurement": "% effect", "setting": "EGFR(L858R)", "value": -4, "unit": "%"},
      {"measurement": "% effect", "setting": "TIE2(R849W)", "value": -9, "unit": "%"},
      {"measurement": "% effect", "setting": "TIE2(Y897S)", "value": 0, "unit": "%"},
      {"measurement": "bioavailability", "setting": "in vivo", "value": 30, "unit": "%"},
      {"measurement": "inhibition at 10 µM", "setting": "alpha 2C (h)", "value": 25, "unit": "%"},
      {"measurement": "inhibition at 10 µM", "setting": "glucagon (h)", "value": -7, "unit": "%"},
      {"measurement": "inhibition at 10 µM", "setting": "5-HT2A (h)", "value": -10, "unit": "%"},
      {"measurement": "Vd", "setting": "In vivo mouse PK", "value": 0.63, "unit": "L/kg"},
      {"measurement": "clearance", "setting": "In vivo mouse PK; Cl, 0.2 mg/kg iv", "value": 10.2, "unit": "mL/min/kg"}
    ]}
  ]
}
